What was measured:
NADPH oxidase (Nox) = assay: Nox activity in synaptosomes by NADPH-dependent oxygen consumption (oximetry); format: biochemical, mouse
Description: Synaptosomal preparations. […] Mice were euthanized by exposure to a lethal dose of inhaled halothane, followed by cervical dislocation. Brains were rapidly removed, cortices dissected and homogenized in 10 volumes of ice-cold isolation buffer (0.32M sucrose, 1 mM EDTA, 10 mM Tris-HCl buffer, pH 7.4, 10 mM glucose). The homogenate was centrifuged at 3100 rpm for 3 min at 4° C., and the supernatant collected, and the pellet was re-homogenized in half the volume of isolation buffer and centrifuged again. Synaptosomal were then isolated as described (see reference 30, below) modified as follows, the pooled supernatants were mixed with PERCOLL™ (Sigma, St. Louis, Mo.) to a final concentration of 15%, and then layered onto a step gradient of 23% and 40% PERCOLL™, and centrifuged at 16,000 rpm for 5 minutes at 4° C. The uppermost band was extracted, rinsed in isolation buffer, centrifuged and resuspended in synaptosomal buffer (120 mM NaCl, 4.7 mM KCl, 2.2 mM CaCl2, 1.2 mM MgCl2, 25 mM HEPES, 1.2 mM MgSO4, 1.2 mM KH2PO4, 10 mM glucose).
Oxygen consumption studies (oximetry). O2 consumption studies on synaptosomes are carried out. […] Studies were carried out to optimize the concentration of synaptosomal protein required, and to confirm stability and viability of synaptosomes and their mitochondria for up to 6 h.

[1] = tested on: pyramidal layer of CA1 in the aged hippocampus; assay: in vivo superoxide production in CA1 of the aged hippocampus (DHE confocal imaging); set-up: species or system mouse; conditions: old mice; C3 by oral administration; apocynin
Description: Analysis of superoxide and/or hydrogen peroxide production by confocal imaging of in vivo dihydroethidium (DHE) oxidation. Mice will be injected intraperitoneally (i.p.) with dihydroethidium. Briefly, two serial i.p. injections of freshly prepared dihydroethidium (27 mg/kg) are given at 30 minute intervals. Eighteen hours later, mice are anesthetized with inhaled halothane, and are perfused intracardially with cold saline followed by 4% paraformaldehyde in PBS. Brains are removed and post-fixed in 2% paraformaldehyde for >24 h. Following fixation, brains are cut into 50 μm coronal sections and co-labeled with the appropriate primary and secondary antibodies for fluorescence visualization. […] First, an image is taken in the fluorescence channel of the ICC-fluorophor and then the channel is switched to image fluorescence from DHE oxidation. […] Using the image pairs for each field and MetaMorph software, an analyst blind to the group circles the outline of each ICC-labeled cell and then switches to the DHE oxidation image. The average fluorescence intensity for each cell of interest is logged, and values averaged to determine the mean fluorescence/cell.

COc1cc(C(C)=O)ccc1O [apocynin, 4-hydroxy-3-methoxyacetophenone]
block of NADPH-induced O2 consumption (NADPH oxidase (Nox); 200 μM apocynin, synaptosomes, 5 mM NADPH): > 90% | effect on increased Nox activity in synaptosomes from ketamine treated animals (NADPH oxidase (Nox); apocynin added in vitro): inhibited | effect on elevated levels of superoxide in the pyramidal layer of CA1 in the aged hippocampus [1]: prevented

Source: patent publication US9944583B2, “Methods for ameliorating and preventing central nervous system inflammation” (THE REGENTS OF THE UNIVERSITY OF CALIFORNIA, priority 2007, dated 2018)
